From patent publication US8829029B2, “Dual modulators of 5HT2A and D3 receptors” (Hoffmann-La Roche Inc., priority 2008, dated 2014)

How the values were obtained:
[1] = target: human 5-HT2A serotonin receptor (Homo sapiens (Human), UniProt P28223); assay: Radioligand binding ([3H]-ketanserin) to cloned human 5-HT2A receptor expressed in HEK-293 EBNA cells; conditions: membranes of transfected HEK-293 EBNA cells, 1.1 nM [3H]-ketanserin, 1 h at RT
Protocol: The ability of the compounds to bind to the 5-HT2A, D3 and D2 receptors was determined using radioligand binding to cloned receptors selectively expressed in HEK-293 EBNA cells.
(§1) HEK-293 EBNA cells were transiently transfected with expression plasmids encoding for the human D2 or D3 dopamine- or for the human 5-HT2A serotonin receptor, respectively. The cells were harvested 48 h post-transfection, washed three times with cold PBS and stored at −80° C. prior to use. The pellet was suspended in cold 50 mM Tris-HCl buffer containing 10 mM EDTA (pH 7.4) and homogenized with a Polytron (Kinematica AG, Basel, Switzerland) for 20-30 sec at 12,000 rpm. After centrifugation at 48,000×g for 30 min at 4° C., the pellet was resuspended in cold 10 mM Tris-HCl buffer containing 0.1 mM EDTA (pH 7.4), homogenized, and centrifuged as above. This pellet was further resuspended in a smaller volume of ice cold 10 mM Tris-HCl buffer containing 0.1 mM EDTA (pH 7.4) and homogenized with a Polytron for 20-30 sec at 12,000 rpm. The protein content of this homogenate was determined with the Bio-Rad (Bradford) Protein Assay (Biorad Laboratories GmbH, München, Germany) according to the instructions of the manufacturer using gamma globulin as the standard. This homogenate was stored at −80° C. in aliquots and thawed immediately prior to use.
Aliquots of membrane preparations were thawed at RT, resuspended in assay buffer (D2, D3: 50 mM Tris-HCl, 120 mM NaCl, 5 mM MgCl2, 1 mM EDTA, 5 mM KCl, 1.5 mM CaCl2, pH=7.4; 5-HT2A: 50 mM Tris-HCl, 10 mM MgCl2, 1 mM EGTA, pH=7.4), homogenized with a Polytron for 20-30 sec at 12,000 rpm and adjusted to a final concentration of approximately 7.5 μg protein/well (D2, D3) and 15 μg protein/well (5-HT2A), respectively.
(§2) The binding affinity (Ki) of the compounds was determined using radioligand binding. Membranes were incubated in a total volume of 200 μl with a fixed concentration of radioligand (final concentration approximately 0.7 nM [^3H]-spiperone for D2, 0.5 nM [^3H]-spiperone for D3, and 1.1 nM [^3H]-ketanserin for 5-HT2A) and ten concentrations of test compound in ranging between 10 μM-0.1 nM for 1 h at RT. At the end of the incubation, the reaction mixtures were filtered on to unifilter 96-well white microplates with bonded GF/C filters (Packard BioScience, Zürich, Switzerland; preincubated for 1 h in 0.1% polyethylenimine (PEI) in assay buffer) with a Filtermate 196 harvester (Packard BioScience) and washed 3 times with cold assay buffer. The nonspecific binding was determined with equally composed reaction mixtures in the presence of 10 μM unlabelled spiperone. Per well 45 μl of Microscint 40 (Perkin Elmer, Schwerzenbach, Switzerland) was added, plates for sealed, shaken for 20 min and counted for 3 min on a Topcount Microplate Scintillation Counter (Canberra Packard SA, Zürich, Switzerland) with quenching correction.
(§3) The CPM value for each duplicate of a concentration of competing compound was averaged (y1), then the % specific binding was calculated according to the equation (((y1−non-specific)/(total binding−non-specific))×100). Graphs were plotted with the % specific binding using XLfit, a curve fitting program that iteratively plots the data using Levenburg Marquardt algorithm. The single site competition analysis equation used was y=A+((B−A)/(1+((x/C)^D))), where y is the % specific binding, A is the minimum y, B is the maximum y, C is the IC50, x is the log10 of the concentration of the competing compound and D is the slope of the curve (the Hill Coefficient). From these curves the IC50 (inhibition concentration at which 50% specific binding of the radioligand was displaced) and Hill coefficient were determined. The affinity constant (Ki) was calculated using the Cheng-Prusoff equation Ki=(IC50/1+([L]/Kd), where [L] is the concentration of radioligand and Kd is the dissociation constant of the radioligand at the receptor as determined by the saturation isotherm.

[2] = target: human D3 dopamine receptor (Homo sapiens (Human), UniProt P35462); assay: Radioligand binding ([3H]-spiperone) to cloned human D3 receptor expressed in HEK-293 EBNA cells; conditions: membranes of transfected HEK-293 EBNA cells, 0.5 nM [3H]-spiperone, 1 h at RT
Protocol: as §1, with “The pellet was suspended in cold 50 mM Tris-HCl buffer containing 10 mM EDTA (pH 7.4) and homogenized with a Polytron (Kinematica AG, Basel, Switzerland) for 20-30 sec at 12,000 rpm.” left out, “This pellet was further resuspended in a smaller volume of ice cold 10 mM Tris-HCl buffer containing 0.1 mM EDTA (pH 7.4) and homogenized with a Polytron for 20-30 sec at 12,000 rpm.” left out
as §2, §3

Chain of human D3 dopamine receptor (P35462 whole entry): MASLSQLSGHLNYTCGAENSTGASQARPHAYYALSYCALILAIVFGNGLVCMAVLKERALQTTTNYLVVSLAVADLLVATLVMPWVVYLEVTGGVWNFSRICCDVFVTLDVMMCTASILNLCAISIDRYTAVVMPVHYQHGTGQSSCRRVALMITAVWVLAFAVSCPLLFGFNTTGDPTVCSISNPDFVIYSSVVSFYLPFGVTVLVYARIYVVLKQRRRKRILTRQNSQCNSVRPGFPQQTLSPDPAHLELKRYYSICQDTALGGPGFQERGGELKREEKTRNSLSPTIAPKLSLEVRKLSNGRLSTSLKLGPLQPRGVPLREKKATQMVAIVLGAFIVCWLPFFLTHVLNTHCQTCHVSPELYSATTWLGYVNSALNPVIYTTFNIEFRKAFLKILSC

SMILES | Ki [1] | Ki [2]
COc1cc(C(=O)N[C@H]2CC[C@H](CCN3CCC(c4noc5cc(F)ccc45)CC3)CC2)ccn1 [Example 13, N-trans (4-{2-[4-(6-Fluoro-benzo[d]isoxazol-3-yl)-piperidin-1-yl]-ethyl}-cyclohexyl)-2-methoxy-isonicotinamide] | 1.62 nM | 3.74 nM
O=C(N[C@H]1CC[C@H](CCN2CCC(c3noc4cc(F)ccc34)CC2)CC1)c1ccc(N2CCCCC2)cc1 [Example 14, N-trans (4-{2-[4-(6-Fluoro-benzo[d]isoxazol-3-yl)-piperidin-1-yl]-ethyl}-cyclohexyl)-4-piperidin-1-yl-benzamide] | 2.6 nM | 8.69 nM
O=C(N[C@H]1CC[C@H](CCN2CCC(c3noc4cc(F)ccc34)CC2)CC1)C1COc2ccccc2O1 (stereo partly drawn) [Example 15, 2,3-Dihydro-benzo[1,4]dioxine-2-carboxylic acid trans (4-{2-[4-(6-fluoro-benzo[d]isoxazol-3-yl)-piperidin-1-yl]-ethyl}-cyclohexyl)-amide] | 2.57 nM | 12.7 nM
Cc1ccn(CC(=O)N[C@H]2CC[C@H](CCN3CCC(c4noc5cc(F)ccc45)CC3)CC2)n1 [Example 16, N-trans (4-{2-[4-(6-Fluoro-benzo[d]isoxazol-3-yl)-piperidin-1-yl]-ethyl}-cyclohexyl)-2-(3-methyl-pyrazol-1-yl)-acetamide] | 2.8 nM | 27.6 nM
O=C(N[C@H]1CC[C@H](CCN2CCC(c3noc4cc(F)ccc34)CC2)CC1)c1ccc(-n2cccc2)cc1 [Example 17, N-trans(4-{2-[4-(6-Fluoro-benzo[d]isoxazol-3-yl)-piperidin-1-yl]-ethyl}-cyclohexyl)-4-pyrrol-1-yl-benzamide] | 2.45 nM | 2.61 nM
O=C(N[C@H]1CC[C@H](CCN2CCC(c3noc4cc(F)ccc34)CC2)CC1)C1(O)CC1 [Example 18, 1-Hydroxy-cyclopropanecarboxylic acid trans (4-{2-[4-(6-fluoro-benzo[d]isoxazol-3-yl)-piperidin-1-yl]-ethyl}-cyclohexyl)-amide] | 1.44 nM | 5.92 nM
O=C(N[C@H]1CC[C@H](CCN2CCC(c3noc4cc(F)ccc34)CC2)CC1)C1(C(F)(F)F)CCC1 [Example 19, 1-Trifluoromethyl-cyclobutanecarboxylic acid trans (4-{2-[4-(6-fluoro-benzo[d]isoxazol-3-yl)-piperidin-1-yl]-ethyl}-cyclohexyl)-amide] | 2.26 nM | 7.74 nM
O=C(CC(F)(F)F)N[C@H]1CC[C@H](CCN2CCC(c3noc4cc(F)ccc34)CC2)CC1 [Example 20, 3,3,3-Trifluoro-N-trans (4-{2-[4-(6-fluoro-benzo[d]isoxazol-3-yl)-piperidin-1-yl]-ethyl}-cyclohexyl)-propionamide] | 2.78 nM | 5.19 nM
COc1cc(CC(=O)N[C@H]2CC[C@H](CCN3CCC(c4noc5cc(F)ccc45)CC3)CC2)cc(OC)c1 [Example 21, 2-(3,5-Dimethoxy-phenyl)-N-trans (4-{2-[4-(6-fluoro-benzo[d]isoxazol-3-yl)-piperidin-1-yl]-ethyl}-cyclohexyl)-acetamide] | 2.95 nM | 8.77 nM
CC1CN(c2ccc(C(=O)N[C@H]3CC[C@H](CCN4CCC(c5noc6cc(F)ccc56)CC4)CC3)cc2)CC(C)O1 (stereo partly drawn) [Example 22, 4-(2,6-Dimethyl-morpholin-4-yl)-N-trans (4-{2-[4-(6-fluoro-benzo[d]isoxazol-3-yl)-piperidin-1-yl]-ethyl}-cyclohexyl)-benzamide] | 21.2 nM | 137 nM
CC(=O)N[C@H]1CC[C@H](CCN2CCC(c3noc4ccc(F)cc34)CC2)CC1 [Example 24, N-trans(4-{2-[4-(5-Fluoro-benzo[d]isoxazol-3-yl)-piperidin-1-yl]-ethyl}-cyclohexyl)-acetamide] | 46.9 nM | 2.44 nM
O=C(N[C@H]1CC[C@H](CCN2CCC(c3noc4ccc(F)cc34)CC2)CC1)c1ccc(N2CCOCC2)cc1 [Example 25, N-trans(4-{2-[4-(5-Fluoro-benzo[d]isoxazol-3-yl)-piperidin-1-yl]-ethyl}-cyclohexyl)-4-morpholin-4-yl-benzamide] | 22.3 nM | 9.04 nM
O=C(N[C@H]1CC[C@H](CCN2CCC(c3noc4ccc(F)cc34)CC2)CC1)c1ccc(N2CCCCC2)cc1 [Example 27, N-trans(4-{2-[4-(5-Fluoro-benzo[d]isoxazol-3-yl)-piperidin-1-yl]-ethyl}-cyclohexyl)-4-piperidin-1-yl-benzamide] | 7 nM | 7.7 nM
CC1CN(c2ccc(C(=O)N[C@H]3CC[C@H](CCN4CCC(c5noc6ccc(F)cc56)CC4)CC3)cc2)CC(C)O1 (stereo partly drawn) [Example 28, 4-(2,6-Dimethyl-morpholin-4-yl)-N-trans (4-{2-[4-(5-fluoro-benzo[d]isoxazol-3-yl)-piperidin-1-yl]-ethyl}-cyclohexyl)-benzamide] | 99.1 nM | 85.8 nM
O=C(N[C@H]1CC[C@H](CCN2CCC(c3noc4ccc(F)cc34)CC2)CC1)c1ccc(N2CCS(=O)(=O)CC2)cc1 [Example 29, 4-(1,1-Dioxo-1,6,4-thiomorpholin-4-yl)-N trans-(4-{2-[4-(5-fluoro-benzo[d]isoxazol-3-yl)-piperidin-1-yl]-ethyl}-cyclohexyl)-benzamide] | 12.4 nM | 5.94 nM
COCCC(=O)N[C@H]1CC[C@H](CCN2CCC(c3noc4cc(Cl)ccc34)CC2)CC1 [Example 32, N-trans(4-{2-[4-(6-Chloro-benzo[d]isoxazol-3-yl)-piperidin-1-yl]-ethyl}-cyclohexyl)-3-methoxy-propionamide] | 16.5 nM | 8.5 nM
O=C(N[C@H]1CC[C@H](CCN2CCC(c3noc4cc(Cl)ccc34)CC2)CC1)C(O)C(F)(F)F (stereo partly drawn) [Example 33, N-trans-(4-{2-[4-(6-Chloro-benzo[d]isoxazol-3-yl)-piperidin-1-yl]-ethyl}-cyclohexyl)-3,3,3-trifluoro-2-hydroxy-propionamide] | 21.9 nM | 11 nM
O=C(CC1CCC2(CC1)OCCO2)N[C@H]1CC[C@H](CCN2CCC(c3noc4cc(Cl)ccc34)CC2)CC1 [Example 36, N-trans (4-{2-[4-(6-Chloro-benzo[d]isoxazol-3-yl)-piperidin-1-yl]-ethyl}-cyclohexyl)-2-(1,4-dioxa-spiro[4.5]dec-8-yl)-acetamide] | 8.31 nM | 12.2 nM
COC(CC(=O)N[C@H]1CC[C@H](CCN2CCC(c3noc4cc(Cl)ccc34)CC2)CC1)OC [Example 37, N-trans-(4-{2-[4-(6-Chloro-benzo[d]isoxazol-3-yl)-piperidin-1-yl]-ethyl}-cyclohexyl)-3,3-dimethoxy-propionamide] | 13.7 nM | 9.03 nM
